Data set [1] relates to PBMC from aviremic, ART-treated PLWH. Nature of the data set: Modified quantitative viral outgrowth assay (qVOA) with LRA. The data set is classed as cell-based, human. The text has this: Considering that TGF-β is present in FBS, used to supplement PBMC and T cell cultures, and that PBMC from people living with HIV-1 release TGF-β in culture supernatants (56-58), we hypothesized that blocking TGF-β while reversing HIV-1 latency ex vivo from PBMC of ART-treated, aviremic individuals may lead to higher frequency of HIV-1 reactivation than in untreated cultures. To test this hypothesis, we used a modified version of the classical quantitative viral outgrowth assay (qVOA) (59). We used whole PBMC to assess potential latency reactivation from any HIV-1-infected circulating cell and not only from resting CD4+ T cells (FIG. 6A). PBMC from two different sets of aviremic, ART-treated donors (Table 1) were activated with PMA (at 100 ng/ml or 10 ng/ml) and with Vorinostat (SAHA, at 1 μM) in presence of T20 and galunisertib (1 μM) or mock solution. […] Infectious unit per million cells (IUPM) were calculated based on the number of infected wells as determined by p24 ELISA (FIG. 6A). […]
PBMC were thawed and cultured in RPMI 10% FBS at 3×10^6/ml. […] 50 μl of supernatant was collected after 7, 14 and 21 days of co-culture and monitored for p24 presence by p24 ELISA (PerkinElmer). IUPM were calculated based on the number of positive wells using the IUPM calculator provided by Dr. Siliciano (76). […]

The subject of another data set is SIVmac239M2. In words: Plasma viral load, four 2-week galunisertib cycles. The data set is classed as in vivo, rhesus macaques. As to the method: Rhesus macaques (n=8 main study+4 separate non-concomitant study) were infected with 300 TCID50 of the barcoded SIVmac239M2 stock intravenously and ART (Tenofovir [PMPA], Emtricitabine [FTC] and Dolutegravir [DTG]) was initiated on week 6 pi. Galunisertib treatment was initiated on week 35 p.i. Powder (MedChemExpress—MCE, NJ, USA) was dissolved in water and given orally in a treat twice daily at 20 mg/kg. 4 cycles of 2 weeks daily treatment with 2 weeks wash out period were performed. Macaques 08M156 and A6X003 were given the rhesus recombinant antibody (rhesus/human chimeric) anti-PD1 antibody [NIVOR4LALA; comprising silenced rhesus IgG4k […] constant regions and variable regions from anti-human PD-1, nivolumab; non-human primates reagents resource, NHPRR. Blood viral load was monitored biweekly before and during ART and every 3-4 days during Galunisertib treatment. Colorectal biopsies and LN FNA were collected before and after galunisertib treatment. ART was terminated 3 weeks after the last galunisertib dose and euthanasia and necropsy to harvest tissues were performed at week 58 post infection, tissues samples were flash frozen, fixed in OCT or Z-fix.
Blood was collected in EDTA tubes and plasma was separated by density gradient centrifugation and used for the determination of plasma VL by SIVgag qRT-PCR at NIRC or at Leidos (Quantitative Molecular Diagnostics Core, AIDS and Cancer Virus Program Frederick National Laboratory). Tissue VL from snap frozen PBMC pellets, colorectal biopsies and LN FNA were performed as described in (77). SIV-TILDA was performed on freshly stored PBMC before cycle 1 and at the end of cycle 4 of galunisertib by Accelevir, Baltimore, MD.

Data set [2] is described as follows: Clinical pathology (chemistry, hematology) and adverse events. Type of data set: in vivo, rhesus macaques. The method, then:
1 mL of blood was collected in EDTA tubes and tested for a standard hematology panel (complete blood count—CBC) using a BECKMAN COULTER DxH600 hematology analyzer. An additional 1 mL of blood was collected into a SST tube, centrifuged to isolate serum, and analyzed for a comprehensive serum chemistry panel using a Siemens's Dimension Clinical Chemistry Analyzer.

Data set [3] in a line: Plasma cytokines and chemokines (MSD 24-plex). Type of data set: in vivo, rhesus macaques. The method, then:
Cytokines in plasma (at 1:2 dilution) were measured using the NHP Cytokine 24-Plex kit by Meso Scale Diagnostics (MSD) according to manufacturer instructions. Frozen PBMC collected at week 6 post-infection (pre-ART), right before the first galunisertib administration (BC1), at the end of cycle 1 (AC1) and at the end of cycle 3 (AC3) were thawed in AIM V medium (ThermoFisher) with benzonase (Sigma) and plated on a FluoroSpot (CTL) plate pre-activated with 70% Ethanol and IFN-γ, TNF-α and IL-2 capture solution. Gag, pol, and env 15-mer peptides (NIH AIDS Reagents program) were prepared at two times the final concentration of 2.5 μg/ml with co-stimulatory reagents anti-CD28 10 μg/ml and anti-CD49d 10 μg/ml and added to the cells in CTL-Test™ Medium. Parallel positive […] control of PMA (20 ng/ml) and ionomycin (200 ng/mL) or mock DMSO solution was also plated with the stimulatory reagents. PBMCs were added at 300,000 cells per well. After 24 hrs, the plate was washed, and incubated with detection and tertiary solutions and shipped to CTL for scanning and QC.

In the case of `Cc1cccc(-c2nn3c(c2-c2ccnc4ccc(C(N)=O)cc24)CCC3)n1` [galunisertib, Galunisertib], the “frequency of latency reactivation events (IUPM)” value in data set [1] (galunisertib 1 μM vs mock, PMA 100 or 10 ng/ml or Vorinostat 1 μM) was “significantly higher frequency”. Besides, in data set [1] (galunisertib-treated PBMC vs mock treated), the “vRNA in supernatant after PMA stimulation” value is listed as “higher levels of vRNA”. Further, the “macaques with increased pVL after start of treatment” value in the data set with SIVmac239M2 (20 mg/Kg twice daily orally, 4 cycles) was 7 out of 8. The “increases in pVL in fully suppressed macaques” value in the data set with SIVmac239M2 (08M171, A8R095 and A8L057) is on record as > 102 copies/ml. The “viral rebound after ART interruption” value in the data set with SIVmac239M2 (ART discontinued 3 weeks after last dose, 6 weeks follow-up) is “One macaque did not rebound”. The “macaques with viral blips above 100 copies/ml in blood” value with SIVmac239M2 (Example 5, 7 macaques, 20 mg/kg twice per day, four 2-weeks cycles) is reported as 5 out of the 7. Also, the “pVL peaks during treatment” value with SIVmac239M2 (macaques with several peaks) is reported as “up to 103 copies/ml”. For the same compound, the “pVL blips in A8T010 and A8R095 after treatment initiation” value in the data set on SIVmac239M2 (undetectable for over 5 weeks before) is listed as “up to 102 copies/ml”. The “clinical variables (chemistry and hematology)” value in data set [2] (before, during and after therapy) is reported as “No significant changes”. Moreover, in data set [2] (macaque studies), the adverse events entry is “no adverse events”. Moreover, the “concentrations of inflammatory chemokines and cytokines in plasma” value in data set [3] (before and after first 2 cycles and end of last cycle) was “no changes”. In addition, the IL-10 in plasma result in data set [3] (end of the last cycle vs before treatment) is “small increase”.

Source of the values: patent publication US20240197712A1, “TGF-BETA INHIBITION FOR IMMUNODEFICIENCY VIRUS REACTIVATION FROM LATENCY, ENHANCEMENT OF IMMUNODEFICIENCY VIRUS-SPECIFIC RESPONSES AND IMMUNODEFICIENCY VIRUS CURE” (Northwestern University, priority 2022, published 2024).
